Assay results reported in BindingDB's records for doi:10.1016/j.bmcl.2005.05.109 (Merck Research Laboratories, 2005).

Assay: Inhibition concentration (binding affinity) against […] melanocortin receptor 4 by displacement of [125I]NDP-alpha-MSH from the human receptors expressed in CHO cells

## CN1C[C@H]2CC[C@@H]1[C@H](C(=O)N[C@H](Cc1ccc(F)cc1)C(=O)N1CCC(C(=O)NC(C)(C)C)(C3CCCCC3)CC1)C2 [(1R,4S,6R)-2-Methyl-2-aza-bicyclo[2.2.2]octane-6-carboxylic acid [(R)-2-(4-tert-butylcarbamoyl-4-cyclohexyl-piperidin-1-yl)-1-(4-fluoro-benzyl)-2-oxo-ethyl]-amide]
  IC50: 7 µM
